Assay results: patent US20200247815A1, “PYRAZOLYL-CONTAINING TRICYCLIC DERIVATIVE, PREPARATION METHOD THEREFOR AND USE THEREOF” (Jiangsu Hansoh Pharmaceutical Group Co., Ltd., priority 2017, published 2020)

Assays:
[1] = molecular target: T1, ERK-1 kinase (Homo sapiens, UniProt P27361); assay: Inhibition of ERK-1 kinase activity (LANCE Ultra TR-FRET); type: biochemical; conditions: ERK1 enzyme 0.4 nM, ATP 38.15 μM
T1 construct: purchased Invitrogen PV3311
Method in brief: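 Reactions contained 0.4 nM ERK1, 0.5 μM Ulight-MBP peptide and 38.15 μM ATP in pH 7.4 Hepes/MgCl2 buffer with 4% DMSO and ran 60 minutes at room temperature. Detection used Eu-anti-p-MBP with a 665/615 nm TR-FRET ratio, normalised to DMSO and no-enzyme controls. Final concentrations were 100 nM to 0.005 nM, and IC50 came from a 4-parameter fit.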

[2] = Solubility (statement, no method); type: physicochemical
[3] = tested on: pancreatic cancer tumor cell Mia Paca 2; assay: Inhibition of tumor cell proliferation (CellTiter-Glo); type: cell-based; conditions: Homo sapiens, Miapaca-2 cell, 3-7 days
Procedure: The object of this test example is to determine the inhibition effect of the present compound on tumor cell proliferation activity. The inhibition activity of the compound on tumor cell proliferation was determined by CellTiter-Glo method, and the half inhibitory concentration IC50 of the compound for inhibiting cell proliferation activity was obtained, 50-100 μL of tumor cell suspension was inoculated in a 96-well cell culture plate with a density of 1˜5*10^4 cells/ml. The plate was incubated in an incubator for 16˜24 hours (37° C., 5% CO2). Solutions of test compounds at different concentrations obtained by gradient dilution were added to the cells in the plate. The plate was incubated in an incubator for 3-7 days (37° C., 5% CO2), 50˜100 μL of CellTiter-Glo reagent was added to each well. The plate was shaked for 10 minutes, and left to stand at room temperature for 10 minutes. The value of the chemiluminescence signal was determined by a microplate reader. The inhibition rate was calculated from the value of the chemiluminescence signal. IC50 of the compound was obtained by curve fitting based on the inhibition rate at different concentrations.
The inhibition effect of the present compound on pancreatic cancer tumor cell Mia Paca 2 proliferation activity was determined by the test, and the obtained IC50 value is shown in Table 2.

[4] = molecular target: T2, ERK-2 kinase (Homo sapiens, UniProt P28482); assay: Inhibition of ERK-2 kinase activity (LANCE Ultra TR-FRET); type: biochemical; conditions: ERK-2 enzyme 0.08 nM, ATP 38.15 μM
T2 construct: purchased Invitrogen PV3313
Method in brief: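 Recombinant ERK-2 (0.08 nM) with ULight-MBP peptide (0.5 μM) and ATP (38.15 μM) in Hepes pH 7.4 buffer, compound 100 nM to 0.005 nM final, 4% DMSO, 60 min at room temperature. Eu-anti-p-MBP TR-FRET (665/615 nm) read after EDTA stop; % inhibition versus DMSO and no-enzyme controls fitted 4-parameter for Abs_IC50.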

T1 sequence (P27361 whole entry): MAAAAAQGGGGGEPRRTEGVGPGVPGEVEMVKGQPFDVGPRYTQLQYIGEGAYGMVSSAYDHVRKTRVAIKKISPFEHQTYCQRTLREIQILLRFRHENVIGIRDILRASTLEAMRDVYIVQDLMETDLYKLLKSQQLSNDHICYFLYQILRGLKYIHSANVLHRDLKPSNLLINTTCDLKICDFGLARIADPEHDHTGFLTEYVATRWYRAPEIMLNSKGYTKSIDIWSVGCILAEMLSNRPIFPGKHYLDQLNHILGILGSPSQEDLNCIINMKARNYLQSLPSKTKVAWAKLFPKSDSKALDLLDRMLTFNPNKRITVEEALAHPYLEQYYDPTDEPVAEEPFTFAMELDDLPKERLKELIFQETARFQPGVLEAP
T2 sequence (P28482 whole entry): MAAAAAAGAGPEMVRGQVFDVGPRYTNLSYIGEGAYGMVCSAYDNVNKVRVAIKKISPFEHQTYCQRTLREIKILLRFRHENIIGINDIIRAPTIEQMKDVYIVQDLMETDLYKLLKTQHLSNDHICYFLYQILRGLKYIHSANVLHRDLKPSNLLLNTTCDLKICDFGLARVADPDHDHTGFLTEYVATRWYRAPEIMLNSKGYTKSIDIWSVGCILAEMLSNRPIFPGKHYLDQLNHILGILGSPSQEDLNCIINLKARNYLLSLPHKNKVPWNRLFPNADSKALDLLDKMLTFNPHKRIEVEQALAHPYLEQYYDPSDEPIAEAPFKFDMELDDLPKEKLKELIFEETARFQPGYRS

Row | IC50 [1] | Solubility compared with ERK compounds of the prior art [2] | IC50 [3] | IC50 [4] | Compound
1 | 0.42 nM | higher solubility | 69.1 nM | 0.19 nM | C[C@@H](NC(=O)c1nc2cc3c(-c4ccncc4)n[nH]c3cc2[nH]1)c1ccccc1 [Example 2, (R)—N-(1-phenylethyl)-3-(pyridin-4-yl)-1,7-dihydroimidazo[4,5-f]indazole-6-carboxamide]
2 | 0.29 nM | higher solubility | 123 nM | 0.17 nM | C[C@@H](NC(=O)c1cc2cc3c(-c4ccncc4)n[nH]c3cc2[nH]1)c1ccccc1 [Example 1, (R)—N-(1-phenylethyl)-3-(pyridin-4-yl)-1,7-dihydropyrrolo[3,2-f]indazole-6-carboxamide]
